Laboratory results as given in US20240124460A1, “METHODS AND COMPOSITIONS FOR TARGETED PROTEIN DEGRADATION” (Ranok Therapeutics (Hangzhou) Co. Ltd., priority 2020, published 2024).
Read-outs that look alike come from different tables or passages of the source.

What was measured:
[1] = system: U-87 MG human glioblastoma; assay: U87 MG CCK-8 proliferation assay; type: cell-based; conditions: U-87 MG cells, read-out: U87MG CCK-8
Summary of the method: (§1)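 3-fold dilution series, 20 μM–1.02 nM; ATCC culture conditions; CCK-8 absorbance read-out; % inhibition = 100 − (D−B)/(S−B)×100, S = DMSO cells, B = medium + DMSO, no cells.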

[2] = system: MV-4-11 human acute myeloid leukemia; assay: MV-4-11 CCK-8 proliferation assay; type: cell-based; conditions: MV-4-11 cells, 72 hr
Summary of the method: as §1

[3] = system: ERBB2; assay: ERBB2 (HER2) flow cytometry protein degradation assay in BT-474 cells; type: cell-based, human; conditions: DC50, BT-474 cells, 24 hr
Summary of the method: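 BT-474 cells trypsinised after compound treatment and stained with PE-conjugated anti-ERBB2 antibody, 30 min at 25° C in the dark, then fixed in 1% paraformaldehyde for flow cytometry. % inhibition = 100−(D−B)/(S−B)*100, using treated, untreated-stained and unstained cell fluorescence.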

[4] = target: T1, HSP90α protein (Homo sapiens, UniProt P07900); assay: HSP90α-binding FP (BODIPY) assay; conditions: FP competition with BODIPY-labeled RNK04010
T1 construct: purchased BPS Bioscience #50298
Summary of the method: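 Fluorescence polarization measured competition with N-terminal human HSP90α, using either FITC-geldanamycin or BODIPY-labelled triazolone RNK04010 as tracer (5 nM final each). Compounds were tested in 2.5-fold dilutions from 20 μM to 5.2 nM, with incubation at 25 °C for 120 min (FITC) or 300 min (BODIPY).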

[5] = target: MAPK7 (Homo sapiens, UniProt Q13164); assay: MAPK7 kinase assay (ADP-Glo); type: biochemical; parameters: purchased Carna Biosciences #04-146; conditions: ATP 340 μM
Chain of MAPK7 (Q13164 whole entry): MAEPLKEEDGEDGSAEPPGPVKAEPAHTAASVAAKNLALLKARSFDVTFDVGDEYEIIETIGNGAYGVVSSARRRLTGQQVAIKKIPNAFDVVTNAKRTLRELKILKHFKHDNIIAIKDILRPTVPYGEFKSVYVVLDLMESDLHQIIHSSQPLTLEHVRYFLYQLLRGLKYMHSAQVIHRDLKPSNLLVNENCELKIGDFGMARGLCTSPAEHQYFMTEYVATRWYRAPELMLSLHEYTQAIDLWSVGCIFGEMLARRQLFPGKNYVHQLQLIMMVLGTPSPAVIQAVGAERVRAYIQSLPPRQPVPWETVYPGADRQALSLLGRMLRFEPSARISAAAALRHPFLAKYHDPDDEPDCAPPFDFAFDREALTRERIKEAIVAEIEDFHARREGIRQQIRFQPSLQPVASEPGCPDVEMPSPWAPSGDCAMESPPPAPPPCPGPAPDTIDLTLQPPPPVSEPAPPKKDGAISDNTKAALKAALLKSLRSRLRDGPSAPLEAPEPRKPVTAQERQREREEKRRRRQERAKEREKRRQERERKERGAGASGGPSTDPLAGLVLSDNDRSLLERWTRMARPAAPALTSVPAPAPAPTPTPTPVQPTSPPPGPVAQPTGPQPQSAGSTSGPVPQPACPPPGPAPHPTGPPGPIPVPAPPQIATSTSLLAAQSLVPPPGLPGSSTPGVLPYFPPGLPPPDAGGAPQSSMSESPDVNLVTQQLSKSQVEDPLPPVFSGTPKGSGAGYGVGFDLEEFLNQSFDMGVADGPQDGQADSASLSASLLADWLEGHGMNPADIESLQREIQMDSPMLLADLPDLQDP
Procedure: The inhibition of MAPK7 kinase activity by test compounds was measured by the ADP-Glo Kinase Assay (Promega, #V6930), following the manufacturer's instructions, except as noted. 3-fold serial dilutions of each test compound were prepared ranging from 50 μM to 2.54 nM. Also, as a positive control, a 4-fold serial dilution of the MAPK7 inhibitor, XMD17-109 (MedChemExpress, #HY-15665) was prepared ranging from 10 μM to 0.04 nM. In brief, in 384-well plates, test compounds were added to the kinase reaction mix containing recombinant MAPK7 protein (Carna Biosciences, #04-146; 20 nM final concentration), myelin basic protein (SignalChem Biotech, #M42-54G; 0.1 mg/ml final concentration) and ATP (340 μM final concentration), then mixed by shaking and incubated with ADP-Glo Reagent and Kinase Detection Reagent. Luminescence was measured on a BioTek plate reader.
Lumpositive: The average ratio for 10 wells of positive controls (10 μM XMD17-109) across the plate.
Lumvehicle: The average ratio for 10 wells of negative controls (0.5% DMSO) across the plate.

Compound	EC50 ([1]; 72 hr) [µM]	EC50 [2] [µM]	ERBB2 degradation [3]	IC50 [4] [µM]	IC50 [5] [µM]	EC50 ([1]; Homo sapiens, U-87 MG, 72 h) [µM]	EC50 ([2]; Homo sapiens, MV4-11) [µM]
CCOc1cc(N2CCC(C(=O)N3CCC(N4CCN(Cc5ccc(-n6c(O)nnc6-c6cc(C(C)C)c(O)cc6O)cc5)CC4)CC3)CC2)ccc1Nc1ncc2c(n1)N(C)c1ccccc1C(=O)N2C.Cl [Compound 042, 2-((4-(4-(4-(4-(4-(3-(2,4-dihydroxy-5-isopropylphenyl)-5-hydroxy-4H-1,2,4-triazol-4-yl)benzyl)piperazin-1-yl)piperidine-1-carbonyl)piperidin-1-yl)-2-ethoxyphenyl)amino)-5,11-dimethyl-5H-benzo[e]pyrimido[5,4-b][1,4]diazepin-6(11H)-one]	< 0.1	< 0.1	B (DC50 = 100-1000 nM)	< 0.1	> 1		
CCOc1cc(N2CCC(C(=O)NCCOCCNC(=O)O[C@H]3CC[C@H](Nc4cc(-n5nc(C(F)(F)F)c6c5CC(C)(C)CC6=O)ccc4C(N)=O)CC3)CC2)ccc1Nc1ncc2c(n1)N(C)c1ccccc1C(=O)N2C [Compound 103, (1R,4R)-4-((2-carbamoyl-5-(6,6-dimethyl-4-oxo-3-(trifluoromethyl)-4,5,6,7-tetrahydro-1H-indazol-1-yl)phenyl)amino)cyclohexyl (2-(2-(1-(4-((5,11-dimethyl-6-oxo-6,11-dihydro-5H-benzo[e]pyrimido[5,4-b][1,4]diazepin-2-yl)amino)-3-ethoxyphenyl)piperidine-4-carboxamido)ethoxy)ethyl)carbamate]			C (DC50 > 1000 nM)	> 1	> 1	> 1	0.1 to 1
CCNC(=O)c1nnc(-c2cc(CC)c(O)cc2O)n1-c1ccc(CN2CCN(CC3CCN(C(=O)C4CCN(c5ccc(Nc6ncc7c(n6)N(S(C)(=O)=O)c6ccccc6C(=O)N7C)c(OCC)c5)CC4)CC3)CC2)cc1.Cl [Compound 096, 4-(4-((4-((1-(1-(3-ethoxy-4-((5-methyl-11-(methylsulfonyl)-6-oxo-6,11-dihydro-5H-benzo[e]pyrimido[5,4-b][1,4]diazepin-2-yl)amino)phenyl)piperidine-4-carbonyl)piperidin-4-yl)methyl)piperazin-1-yl)methyl)phenyl)-N-ethyl-5-(5-ethyl-2,4-dihydroxyphenyl)-4H-1,2,4-triazole-3-carboxamide]			B (DC50 = 100-1000 nM)	< 0.1	< 0.1	< 0.1	< 0.1
CCOc1cc(N2CCC(C(=O)NCCOCCNC(=O)O[C@H]3CC[C@H](Nc4cc(-n5nc(C(F)(F)F)c6c5CC(C)(C)CC6=O)ccc4C#N)CC3)CC2)ccc1Nc1ncc2c(n1)N(S(C)(=O)=O)c1ccccc1C(=O)N2C [Compound 111, (1R,4R)-4-((2-((12-azanylidene)-l3-methyl)-5-(6,6-dimethyl-4-oxo-3-(trifluoromethyl)-4,5,6,7-tetrahydro-1H-indazol-1-yl)phenyl)amino)cyclohexyl (2-(2-(1-(3-ethoxy-4-((5-methyl-11-(methylsulfonyl)-6-oxo-6,11-dihydro-5H-benzo[e]pyrimido[5,4-b][1,4]diazepin-2-yl)amino)phenyl)piperidine-4-carboxamido)ethoxy)ethyl)carbamate]				> 1	> 1	> 1	> 1
CCOc1cc(N2CCC(C(=O)N3CCC(CN4CCN(Cc5ccc(-n6c(C(=O)NC(C)C(F)(F)F)nnc6-c6cc(CC)c(O)cc6O)cc5)CC4)CC3)CC2)ccc1N(CC)c1ncc2c(n1)N(S(C)(=O)=O)c1ccccc1C(=O)N2C (stereo not drawn) [Compound 115, 4-(4-((4-((1-(1-(3-ethoxy-4-(ethyl(5-methyl-11-(methylsulfonyl)-6-oxo-6,11-dihydro-5H-benzo[e]pyrimido[5,4-b][1,4]diazepin-2-yl)amino)phenyl)piperidine-4-carbonyl)piperidin-4-yl)methyl)piperazin-1-yl)methyl)phenyl)-5-(5-ethyl-2,4-dihydroxyphenyl)-N-(1,1,1-trifluoropropan-2-yl)-4H-1,2,4-triazole-3-carboxamide]			B (DC50 = 100-1000 nM)	0.1 to 1	> 1	0.1 to 1	< 0.1
CCOc1cc(N2CCC(C(=O)NCCOCCNC(=O)O[C@H]3CC[C@H](Nc4cc(-n5nc(C(F)(F)F)c6c5CC(C)(C)CC6=O)ccc4C(N)=O)CC3)CC2)ccc1Nc1ncc2c(n1)N(S(C)(=O)=O)c1ccccc1C(=O)N2C [Compound 105, (1R,4R)-4-((2-carbamoyl-5-(6,6-dimethyl-4-oxo-3-(trifluoromethyl)-4,5,6,7-tetrahydro-1H-indazol-1-yl)phenyl)amino)cyclohexyl (2-(2-(1-(3-ethoxy-4-((5-methyl-11-(methylsulfonyl)-6-oxo-6,11-dihydro-5H-benzo[e]pyrimido[5,4-b][1,4]diazepin-2-yl)amino)phenyl)piperidine-4-carboxamido)ethoxy)ethyl)carbamate]			C (DC50 > 1000 nM)	> 1	> 1	> 1	0.1 to 1
CCOc1cc(N2CCC(C(=O)N3CCN(Cc4ccc(-n5c(O)nnc5-c5cc(C(C)C)c(O)cc5O)cc4)CC3)CC2)ccc1N(C)c1ncc2c(n1)N(C)c1ccccc1C(=O)N2C [Compound 047, 2-((4-(4-(4-(4-(3-(2,4-dihydroxy-5-isopropylphenyl)-5-hydroxy-4H-1,2,4-triazol-4-yl)benzyl)piperazine-1-carbonyl)piperidin-1-yl)-2-ethoxyphenyl)(methyl)amino)-5,11-dimethyl-5,11-dihydro-6H-benzo[e]pyrimido[5,4-b][1,4]diazepin-6-one]			B (DC50 = 100-1000 nM)	0.1 to 1	> 1	0.1 to 1	< 0.1
CCOc1cc(N2CCC(C(=O)N3CCC(CN4CCN(Cc5ccc(-n6c(O)nnc6-c6cc(C(C)C)c(O)cc6O)cc5)CC4)CC3)CC2)ccc1N(CC)c1ncc2c(n1)N(S(C)(=O)=O)c1ccccc1C(=O)N2C [Compound 099, 2-((4-(4-(4-((4-(4-(3-(2,4-dihydroxy-5-isopropylphenyl)-5-hydroxy-4H-1,2,4-triazol-4-yl)benzyl)piperazin-1-yl)methyl)piperidine-1-carbonyl)piperidin-1-yl)-2-ethoxyphenyl)(ethyl)amino)-5-methyl-11-(methylsulfonyl)-5,11-dihydro-6H-benzo[e]pyrimido[5,4-b][1,4]diazepin-6-one]			B (DC50 = 100-1000 nM)	< 0.1	> 1	< 0.1	< 0.1
